Laboratory results reported in patent publication US11090319B2, “Therapeutic uses of pharmaceutical compositions comprising cyclic boronic acid ester derivatives” (Melinta Subsidiary Corp., priority 2010, dated 2021).

Legend:
[1] = tested on: strains expressing KPC alone or in combination with additional beta-lactamases; experiment: microbe, parasite or virus in culture; format: cell-based
[2] = tested on: EC1007 Escherichia coli KPC-3; experiment: Checkerboard assay, biapenem potentiation; settings: Biapenem MIC 8-fold; EC1007 KPC-3 class A
[3] = Klebsiella pneumoniae KP 1004, KPC-2, Compound 5 5 mg/L
[4] = Klebsiella pneumoniae KP 1004, KPC-2, Compound 5 10 mg/L
[5] = Klebsiella pneumoniae KP 1008, KPC-2, Compound 5 0.31 mg/L
[6] = Klebsiella pneumoniae KP 1008, KPC-2, Compound 5 0.625 mg/L
[7] = Klebsiella pneumoniae KP 1008, KPC-2, Compound 5 […]
[8] = Klebsiella pneumoniae KP1082, KPC-2 SHV-1, Compound 5 0.31 mg/L
[9] = Klebsiella pneumoniae KP1082, KPC-2 SHV-1, Compound 5 0.625 mg/L
[10] = Klebsiella pneumoniae KP1082, KPC-2 SHV-1, Compound 5 5 mg/L
[11] = Klebsiella pneumoniae KP1082, KPC-2 SHV-1, Compound 5 10 mg/L
[12] = Klebsiella pneumoniae KP1082, KPC-2 SHV-1, Compound 5 […]
[13] = Klebsiella pneumoniae KP1083, KPC-3, SHV-1, TEM-1, Compound 5 10 mg/L
[14] = Klebsiella pneumoniae KP1083, KPC-3, SHV-1, TEM-1, Compound 5 […]
[15] = Klebsiella pneumoniae KP1084, KPC-3, SHV-11, TEM-1, Compound 5 5 mg/L
[16] = Klebsiella pneumoniae KP1084, KPC-3, SHV-11, TEM-1, Compound 5 10 mg/L
[17] = Klebsiella pneumoniae KP 1087, KPC-2, CTX-M-15, SHV-11, TEM-1, Compound 5 0.31 mg/L
[18] = Klebsiella pneumoniae KP 1087, KPC-2, CTX-M-15, SHV-11, TEM-1, Compound 5 0.625 mg/L
[19] = Klebsiella pneumoniae KP 1087, KPC-2, CTX-M-15, SHV-11, TEM-1, Compound 5 5 mg/L
[20] = Klebsiella pneumoniae KP 1087, KPC-2, CTX-M-15, SHV-11, TEM-1, Compound 5 10 mg/L
[21] = Klebsiella pneumoniae KP1088, KPC-3, SHV-11, TEM-1, Compound 5 0.31 mg/L
[22] = Klebsiella pneumoniae KP1088, KPC-3, SHV-11, TEM-1, Compound 5 0.625 mg/L
[23] = Klebsiella pneumoniae KP1088, KPC-3, SHV-11, TEM-1, Compound 5 5 mg/L
[24] = Klebsiella pneumoniae KP1088, KPC-3, SHV-11, TEM-1, Compound 5 10 mg/L

SMILES: O=C(O)C[C@@H]1CC[C@H](NC(=O)Cc2cccs2)B(O)O1 [Compound 5, 2-((3R,6S)-2-hydroxy-3-(2-(thiophen-2-yl)acetamido)-1,2-oxaborinan-6-yl)acetic acid]
- MIC of Biapenem [1, 3]: X (MIC of less than 0.5 mg/L)
- MIC of Doripenem [1, 3]: X (MIC of less than 0.5 mg/L)
- MIC of Ertapenem [1, 3]: X (MIC of less than 0.5 mg/L)
- MIC of Biapenem [1, 4]: X (MIC of less than 0.5 mg/L)
- MIC of Doripenem [1, 4]: X (MIC of less than 0.5 mg/L)
- MIC of Ertapenem [1, 4]: X (MIC of less than 0.5 mg/L)
- MIC of Biapenem ([1]; Klebsiella pneumoniae KP 1004, KPC-2, Compound 5 […]): X (MIC of less than 0.5 mg/L)
- MIC of Biapenem [1, 5]: X (MIC of less than 0.5 mg/L)
- MIC of Doripenem [1, 5]: X (MIC of less than 0.5 mg/L)
- MIC of Ertapenem [1, 5]: X (MIC of less than 0.5 mg/L)
- MIC of Biapenem [1, 6]: X (MIC of less than 0.5 mg/L)
- MIC of Doripenem [1, 6]: X (MIC of less than 0.5 mg/L)
- MIC of Ertapenem [1, 6]: X (MIC of less than 0.5 mg/L)
- MIC of Biapenem [1, 7]: X (MIC of less than 0.5 mg/L)
- MIC of Doripenem [1, 7]: X (MIC of less than 0.5 mg/L)
- MIC of Ertapenem [1, 7]: X (MIC of less than 0.5 mg/L)
- MIC of Biapenem [1, 8]: X (MIC of less than 0.5 mg/L)
- MIC of Doripenem [1, 8]: X (MIC of less than 0.5 mg/L)
- MIC of Ertapenem [1, 8]: X (MIC of less than 0.5 mg/L)
- MIC of Biapenem [1, 9]: X (MIC of less than 0.5 mg/L)
- MIC of Doripenem [1, 9]: X (MIC of less than 0.5 mg/L)
- MIC of Ertapenem [1, 9]: X (MIC of less than 0.5 mg/L)
- MIC of Biapenem [1, 10]: X (MIC of less than 0.5 mg/L)
- MIC of Doripenem [1, 10]: X (MIC of less than 0.5 mg/L)
- MIC of Ertapenem [1, 10]: X (MIC of less than 0.5 mg/L)
- MIC of Biapenem [1, 11]: X (MIC of less than 0.5 mg/L)
- MIC of Doripenem [1, 11]: X (MIC of less than 0.5 mg/L)
- MIC of Ertapenem [1, 11]: X (MIC of less than 0.5 mg/L)
- MIC of Biapenem [1, 12]: X (MIC of less than 0.5 mg/L)
- MIC of Doripenem [1, 12]: X (MIC of less than 0.5 mg/L)
- MIC of Ertapenem [1, 12]: X (MIC of less than 0.5 mg/L)
- MIC of Doripenem [1, 13]: X (MIC of less than 0.5 mg/L)
- MIC of Ertapenem [1, 13]: X (MIC of less than 0.5 mg/L)
- MIC of Doripenem [1, 14]: Y (MIC of 0.5 mg/L to 4 mg/L)
- MIC of Ertapenem [1, 14]: Y (MIC of 0.5 mg/L to 4 mg/L)
- MIC of Ertapenem ([1]; Klebsiella pneumoniae KP1084, KPC-3, SHV-11, TEM-1, Compound 5 0.31 mg/L): Z (MIC of greater than 4 mg/L)
- MIC of Ertapenem ([1]; Klebsiella pneumoniae KP1084, KPC-3, SHV-11, TEM-1, Compound 5 0.625 mg/L): Z (MIC of greater than 4 mg/L)
- MIC of Biapenem [1, 15]: X (MIC of less than 0.5 mg/L)
- MIC of Doripenem [1, 15]: Y (MIC of 0.5 mg/L to 4 mg/L)
- MIC of Ertapenem [1, 15]: Y (MIC of 0.5 mg/L to 4 mg/L)
- MIC of Biapenem [1, 16]: X (MIC of less than 0.5 mg/L)
- MIC of Doripenem [1, 16]: X (MIC of less than 0.5 mg/L)
- MIC of Ertapenem [1, 16]: Y (MIC of 0.5 mg/L to 4 mg/L)
- MIC of Ertapenem ([1]; Klebsiella pneumoniae KP1084, KPC-3, SHV-11, TEM-1, Compound 5 […]): Z (MIC of greater than 4 mg/L)
- MIC of Biapenem [1, 17]: Z (MIC of greater than 4 mg/L)
- MIC of Doripenem [1, 17]: Z (MIC of greater than 4 mg/L)
- MIC of Ertapenem [1, 17]: Z (MIC of greater than 4 mg/L)
- MIC of Biapenem [1, 18]: Z (MIC of greater than 4 mg/L)
- MIC of Doripenem [1, 18]: Z (MIC of greater than 4 mg/L)
- MIC of Ertapenem [1, 18]: Z (MIC of greater than 4 mg/L)
- MIC of Biapenem [1, 19]: X (MIC of less than 0.5 mg/L)
- MIC of Doripenem [1, 19]: Y (MIC of 0.5 mg/L to 4 mg/L)
- MIC of Ertapenem [1, 19]: Y (MIC of 0.5 mg/L to 4 mg/L)
- MIC of Biapenem [1, 20]: X (MIC of less than 0.5 mg/L)
- MIC of Doripenem [1, 20]: X (MIC of less than 0.5 mg/L)
- MIC of Ertapenem [1, 20]: Y (MIC of 0.5 mg/L to 4 mg/L)
- MIC of Ertapenem ([1]; Klebsiella pneumoniae KP 1087, KPC-2, CTX-M-15, SHV-11, TEM-1, Compound 5 […]): Z (MIC of greater than 4 mg/L)
- MIC of Biapenem [1, 21]: X (MIC of less than 0.5 mg/L)
- MIC of Doripenem [1, 21]: Y (MIC of 0.5 mg/L to 4 mg/L)
- MIC of Ertapenem [1, 21]: Y (MIC of 0.5 mg/L to 4 mg/L)
- MIC of Biapenem [1, 22]: X (MIC of less than 0.5 mg/L)
- MIC of Doripenem [1, 22]: X (MIC of less than 0.5 mg/L)
- MIC of Ertapenem [1, 22]: X (MIC of less than 0.5 mg/L)
- MIC of Biapenem [1, 23]: X (MIC of less than 0.5 mg/L)
- MIC of Doripenem [1, 23]: X (MIC of less than 0.5 mg/L)
- MIC of Ertapenem [1, 23]: X (MIC of less than 0.5 mg/L)
- MIC of Biapenem [1, 24]: X (MIC of less than 0.5 mg/L)
- MIC of Doripenem [1, 24]: X (MIC of less than 0.5 mg/L)
- MIC of Ertapenem [1, 24]: X (MIC of less than 0.5 mg/L)
- MPC8 [2]: X (MPC8 of less than 0.16 μg/mL)
